Measured values: US8173764B2, “Solubilization and targeted delivery of drugs with self-assembling amphiphilic polymers” (AllExcel Inc., priority 2006, dated 2012)
Converted amounts (≈) assume the structure as drawn. Read-outs that look alike come from different tables or passages of the source.

Assays:
[1] = Procedure: (§1) The container bottoms were then attached to the bottom of a small jewelry ultrasonic cleaner bath using a water-resistant double-stick tape. Just enough water was added to the bath to immerse the weigh boats to about ⅓rd height. Sonication was performed for 15 minutes in steps of 5 minutes. The liquids were transferred to centrifuge tubes and centrifuged twice for 30 min. in a bench top centrifuge to pellet out undissolved dye. The supernatants were transferred to clean tubes and centrifuged again, to remove entrained solids. Suspensions of same amounts of dyes in same amount of distilled water as the amount of the polymer solution were treated in the same fashion, as controls. The resulting solutions were spotted (25 ul) on TLC plates to form circles from the drops. The intensities of the spots were compared with spots made from standards of dye solutions made in ethanol or ethanol/water to determine approximate concentrations; the spots are shown in FIG. 1. The solubilities of the dyes in water were determined by dissolving appropriate amount of the dye in […] deionized water (unbuffered) at room temperature, and adding (i.e. titrating with) further water as necessary to obtain saturated solutions.
physchem = assay: physchem
Procedure: as §1

O=C1OC2(c3cc(Cl)c(O)cc3Oc3cc(O)c(Cl)cc32)c2ccccc21 [Dichlorofluorescein, dichlorofluorescein]
concentration of dye in 50 mg/ml polymer ([1]; 15 min): approximately 5 mg/ml | solubility (physchem; water, thermodynamic from solid): 10 µg/mL (≈ 24.9 µM)

Cc1ccccc1/N=N/c1ccc(/N=N/c2c(O)ccc3ccccc23)c(C)c1 [Sudan IV]
concentration of dye in 50 mg/ml polymer [1]: approximately 0.2 mg/ml | concentration (solubility) of dye in H2O (physchem): 0 µg/mL
